Laboratory results published in paper PMC5413018, “Neuropeptide S (NPS) variants modify the signaling and risk effects of NPS Receptor 1 (NPSR1) variants in asthma” (PLoS ONE, 2017).

What was measured:
[1] = tested on: serum pro-inflammatory cytokines; settings: pigs, central and peripheral administration; cited from earlier work
From the text: (§1) In our cells assays, the magnitude of the mRNA expression of NR4A1 was clearly dependent on the combination of NPS and NPSR1 variants (Fig 2). NR4A1 is expressed in lymphocytes upon stimulation and is anti-inflammatory. NR4A1 has been recently described as a key regulator of catecholamine production by macrophages linking sympathetic stress response and inflammation ...

chemotaxis = settings: cited from earlier work
From the text: as §1

phagocytosis = settings: cited from earlier work
From the text: as §1

NPSR1 = settings: cited from earlier work
From the text: To compare the bioactivities of the two NPS variants, we measured the dose-responses of NPSR1-Ile(107) and NPSR1-Asn(107) coding variants to either wildtype NPS-Val(6) or alternative NPS-Leu(6) in a luciferase assay dependent on the activation of a cAMP-response element (CRE). This assay was used since elevation of the intracellular cAMP levels activates cAMP response element binding protein (CREB) via […]. Activated CREB binds to CRE and induces the expression of downstream target ...

NPSR1-Ile(107) = molecular target: T1, NPSR1-Ile(107) (Homo sapiens, UniProt Q6W5P4, N107I); test: Real-time RT-PCR of NPSR1 downstream target genes in HEK293 cells, NPSR1-Ile(107); type: cell-based; parameters: expressed in transfected cells; host or cells: HEK293
T1 sequence (Q6W5P4 1-371 N107I): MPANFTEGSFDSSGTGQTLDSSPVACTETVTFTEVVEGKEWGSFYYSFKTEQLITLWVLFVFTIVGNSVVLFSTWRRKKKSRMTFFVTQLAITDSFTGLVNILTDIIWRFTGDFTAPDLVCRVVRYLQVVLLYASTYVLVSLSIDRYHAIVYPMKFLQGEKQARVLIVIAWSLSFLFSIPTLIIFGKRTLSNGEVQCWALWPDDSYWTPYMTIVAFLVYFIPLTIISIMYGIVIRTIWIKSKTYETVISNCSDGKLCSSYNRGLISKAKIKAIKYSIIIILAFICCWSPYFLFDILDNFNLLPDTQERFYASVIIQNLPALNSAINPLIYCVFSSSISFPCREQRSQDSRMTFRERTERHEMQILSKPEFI
From the text: The activation of CRE results in transcriptional changes of downstream target genes. To examine whether the observed differences in the promoter activity also affected gene expression, we measured the effects of NPS variants on known NPSR1 downstream target genes. NR4A1 (nuclear receptor subfamily 4, group A, member 1), FOS (FBJ murine osteosarcoma viral oncogene homolog), and chemokine ligands CXCL2 and CCL20 were selected as they were among the most influenced genes after NPS stimulation and their expression also differed between transcriptome comparisons of HEK293 cells expressing either NPSR1-Ile(107) or NPSR1-Asn(107). In the present study, HEK293 cells transiently transfected with either NPSR1-Ile(107) or NPSR1-Asn(107) coding variants were stimulated with 100 nM of either NPS-Val(6) or NPS-Leu(6) for 1, 3, 6, and 24 h, and changes in gene expression were analyzed with RT-PCR.
Fig 2 Real time RT-PCR analysis of NPSR1 downstream target genes. […] GAPDH was used as the endogenous reference, and data are expressed as mean of triplicate samples. […] In all experiments, results were calculated with the comparative Ct method.
Human embryonic kidney cells (HEK293) were cultured in MEM+GlutaMAX-1 medium (Gibco/Invitrogen) supplemented with 10% fetal calf serum (FCS) (Biosera), 1% sodium pyruvate, 1% non-essential amino acids and 1% penicillin/streptomycin (Gibco/Invitrogen). […] The HEK293 cell line was chosen for ligand-receptor studies because it is a well-established model for addressing numerous questions in basic biology and is easy to transfect and amenable of stringent quantitative assessment. […]
The mRNA expression was measured with qRT-PCR using either SYBR Green (for NR4A1, FOS, IER3, and EGR1, the primer sequences are given in S5 Table) or TaqMAN assay (Hs00601975 for CXCL2 Hs00601975, Hs01011368 for CCL20, Hs01036497 for NPSR1 and Pre-Developed TaqMAN Assay Reagents, Part No. 4310884 for GAPDH; Applied Biosystems). […]

[2] = HEK293 with NPSR1-Ile(107) or NPSR1-Asn(107), 100 nM NPS

downstream signaling in cells expressing NPSR1-Ile(107) vs NPSR1-Asn(107) (in words) (NPSR1-Ile(107); HEK293, 100 nM, compared with cells expressing NPSR1-Asn(107)): stronger downstream signaling
time of mRNA induction of NR4A1, FOS and CXCL2 (NPSR1-Ile(107); [2]): 1 h
time of up-regulation of CCL20 mRNA (NPSR1-Ile(107); [2]): 3 h
Substance: Neuropeptide S (SFRNGVGTGMKKTSFQRAKS; Neuropeptide S; UniProt P0C0P6 70-89, looked up) [NPS, Neuropeptide S, variant not specified at the place]
levels of serum pro-inflammatory cytokines (in words) [1]: could be activated
effects on chemotaxis (in words) (chemotaxis): direct effects
effects on phagocytosis (in words) (phagocytosis): direct effects
cAMP production on NPSR1 activation (in words) (NPSR1): increasing cAMP production
